Experimental data as given in US9949483B2, “Pesticidally active heterocyclic derivatives with sulphur containing substituents” (Syngenta Participations AG, priority 2014, dated 2018).

Legend:
Assay type in all cases: in vivo
[1] = tested on: Spodoptera littoralis (Egyptian Cotton Leaf Worm); experiment: Example B8: Activity against Spodoptera littoralis, cotton leaf discs sprayed; settings: foliar, 72 h, application rate of 200 ppm, L1 larvae, 3 days after infestation, read-out: control (at least one of mortality, anti-feedant effect, and growth inhibition)
Procedure: Cotton leaf discs were placed on agar in 24-well microtiter plates and sprayed with aqueous test solutions prepared from 10′000 ppm DMSO stock solutions. After drying the leaf discs were infested with five L1 larvae. The samples were assessed for mortality, anti-feedant effect, and growth inhibition in comparison to untreated samples 3 days after infestation. Control of Spodoptera littoralis by a test sample is when at least one of mortality, anti-feedant effect, and growth inhibition is higher than the untreated sample.

[2] = tested on: Mysus persicae (Green Peach Aphid); experiment: Example B6: Activity against Mysus persicae, sucrose solution under Parafilm; settings: Myzus persicae, 120 h; test rate of 12 ppm; mixed with sucrose solution; 5 days after infestation
Procedure: Test compounds from 10′000 ppm DMSO stock solutions were applied by pipette into 24-well microtiter plates and mixed with sucrose solution. The plates were closed with a stretched Parafilm. A plastic stencil with 24 holes was placed onto the plate and infested pea seedlings were placed directly on the Parafilm. The infested plate was closed with a gel blotting paper and another plastic stencil and then turned upside down. The samples were assessed for mortality 5 days after infestation.

[3] = tested on: Aedes aegypti (Yellow Fever Mosquito); experiment: whole plant or invertebrate; settings: 48 h, test rate of 5 ppm, L2 larvae, incubation period of 2 days, read-out: effect in at least one of the two categories (mortality or growth inhibition)
Procedure: 10 to 15 Aedes larvae (L2) together with a nutrition mixture were placed in 96-well microtiter plates. Test compounds were pipetted into the wells. After an incubation period of 2 days insects were assessed for mortality and growth inhibition.

[4] = tested on: Spodoptera littoralis (Egyptian Cotton Leaf Worm); experiment: Example B9: Activity against Spodoptera littoralis, lettuce grown on treated agar; settings: 144 h, test rate of 12.5 ppm, compound mixed with agar, taken up by lettuce roots, 6 days after infestation, read-out: effect in at least one of the three categories (mortality, anti-feedancy, or growth inhibition)
Source text: Test compounds were applied by pipette from 10′000 ppm DMSO stock solutions into 24-well plates and mixed with agar. Lettuce seeds were placed on the agar and the multi well plate was closed by another plate which contains also agar. After 7 days the roots have absorbed the compound and the lettuce has grown into the lid plate. The lettuce leafs were now cut off into the lid plate. Spodoptera eggs were pipetted through a plastic stencil on a humid gel blotting paper and the plate closed with it. The samples were assessed for mortality, anti-feedant effect and growth inhibition in comparison to untreated samples 6 days after infestation.

[5] = tested on: Bemisia tabaci (Cotton White Fly); experiment: Example B1: Activity against Bemisia tabaci, cotton leaf discs sprayed; settings: foliar, 144 h, application rate of 200 ppm, adult white flies, 6 days after incubation
Procedure: Cotton leaf discs were placed on agar in 24-well microtiter plates and sprayed with aqueous test solutions prepared from 10′000 ppm DMSO stock solutions. After drying the leaf discs were infested with adult white flies. The samples were checked for mortality 6 days after incubation.

[6] = tested on: Plutella xylostella (Diamond Back Moth); experiment: Example B7: Activity against Plutella xylostella, artificial diet; settings: 120 h, application rate of 200 ppm, L2 larvae, 5 days after infestation, read-out: effect in at least one of the two categories (mortality or growth inhibition)
Procedure: 24-well microtiter plates with artificial diet were treated with aqueous test solutions prepared from 10′000 ppm DMSO stock solutions by pipetting. After drying, the plates were infested with L2 larvae (10 to 15 per well). The samples were assessed for mortality and growth inhibition in comparison to untreated samples 5 days after infestation.

[7] = tested on: Mysus persicae (Green Peach Aphid); experiment: Example B4: Activity against Mysus persicae, sunflower leaf discs sprayed; settings: Myzus persicae, foliar, 144 h, application rate of 200 ppm, aphid population of mixed ages, 6 days after infestation
Procedure: (§1) Sunflower leaf discs were placed on agar in a 24-well microtiter plate and sprayed with aqueous test solutions prepared from 10′000 ppm DMSO stock solutions. After drying, the leaf discs were infested with an aphid population of mixed ages. The samples were assessed for mortality 6 days after infestation.

[8] = tested on: Euschistus heros (Neotropical Brown Stink Bug); experiment: Example B3: Activity against Euschistus heros, soybean leaf sprayed; settings: 120 h, application rate of 200 ppm, N-2 nymphs, 5 days after infestation, read-out: effect in at least one of the two categories (mortality or growth inhibition)
Procedure: Soybean leaf on agar in 24-well microtiter plates were sprayed with aqueous test solutions prepared from 10′000 ppm DMSO stock solutions. After drying the leaf were infested with N-2 nymphs. The samples were assessed for growth inhibition in comparison to untreated samples 5 days after infestation.

[9] = tested on: Tetranychus urticae (Two-Spotted Spider Mite); experiment: Example B10: Activity against Tetranychus urticae, feeding/contact activity; settings: 192 h
Procedure: Bean leaf discs on agar in 24-well microtiter plates were sprayed with aqueous test solutions prepared from 10′000 ppm DMSO stock solutions. After drying the leaf discs were infested with a mite population of mixed ages. The samples were assessed for mortality on mixed population (mobile stages) 8 days after infestation.

[10] = tested on: Diabrotica balteata (Corn Root Worm); experiment: Example B2: Activity against Diabrotica balteata, maize sprouts sprayed; settings: 96 h, application rate of 200 ppm, L2 larvae, 4 days after infestation
Procedure: Maize sprouts, placed on an agar layer in 24-well microtiter plates were treated with aqueous test solutions prepared from 10′000 ppm DMSO stock solutions by spraying. After drying, the plates were infested with L2 larvae (6 to 10 per well). The samples were assessed for mortality 4 days after infestation.

[11] = tested on: Mysus persicae (Green Peach Aphid); experiment: Example B5: Activity against Mysus persicae, roots of pea seedlings in test solutions; settings: Myzus persicae, 144 h, test rate of 24 ppm, 6 days
Procedure: Roots of pea seedlings infested with an aphid population of mixed ages were placed directly in the aqueous test solutions prepared from 10′000 DMSO stock solutions. The samples were assessed for mortality 6 days after placing seedlings in test solutions.

[12] = tested on: Thrips tabaci (Onion Thrips); experiment: Example B11: Activity against Thrips tabaci, feeding/contact activity; settings: 144 h, application rate of 200 ppm, thrips population of mixed ages, 6 days after infestation
Procedure: as §1, with “in” for “in a”, “plates” for “plate”, “drying” for “drying,”, “a thrips” for “an aphid”

CCSc1ccccc1-n1cc2cnc(C(F)(F)F)cc2n1 [Compound P1, 2-(2-ethylsulfanylphenyl)-6-(trifluoromethyl)pyrazolo[4,3-c]pyridine]
≥ 80%: mortality at 200 ppm [1] | mortality at 12 ppm [2] | percent effect (mortality or growth inhibition) at 5 ppm [3] | percent control (mortality, anti-feedancy or growth inhibition) at 12.5 ppm [4] | mortality at 200 ppm [5] | percent effect (mortality or growth inhibition) at 200 ppm [6] | mortality at 200 ppm [7] | percent effect (mortality or growth inhibition) at 200 ppm [8] | mortality at 200 ppm [9] | mortality at 200 ppm [10]

CCS(=O)(=O)c1ccccc1-n1cc2cnc(C(F)(F)F)cc2n1 [Compound P2, 2-(2-ethylsulfonylphenyl)-6-(trifluoromethyl)pyrazolo[4,3-c]pyridine]
≥ 80%: mortality at 200 ppm [1] | mortality at 200 ppm [5] | percent effect (mortality or growth inhibition) at 200 ppm [6] | mortality at 24 ppm [11] | mortality at 200 ppm [7] | mortality at 200 ppm [10]

CCSc1cccnc1-n1cc2cnc(C(F)(F)F)cc2n1 [Compound P3, 2-(3-ethylsulfanyl-2-pyridyl)-6-(trifluoromethyl)pyrazolo[4,3-c]pyridine]
≥ 80%: mortality at 200 ppm [1] | mortality at 12 ppm [2] | percent control (mortality, anti-feedancy or growth inhibition) at 12.5 ppm [4] | percent effect (mortality or growth inhibition) at 200 ppm [6] | mortality at 200 ppm [7] | percent effect (mortality or growth inhibition) at 200 ppm [8] | mortality at 200 ppm [10]

CCS(=O)(=O)c1cccnc1-n1cc2cnc(C(F)(F)F)cc2n1 [Compound P4, 2-(3-ethylsulfonyl-2-pyridyl)-6-(trifluoromethyl)pyrazolo[4,3-c]pyridine]
≥ 80%: mortality at 200 ppm [1] | percent control (mortality, anti-feedancy or growth inhibition) at 12.5 ppm [4] | percent effect (mortality or growth inhibition) at 200 ppm [6] | mortality at 24 ppm [11] | mortality at 200 ppm [7] | percent effect (mortality or growth inhibition) at 200 ppm [8] | mortality at 200 ppm [10]

CCS(=O)(=O)c1cccnc1-n1cc2cnc(Br)cc2n1 [Compound P6, 6-bromo-2-(3-ethylsulfonyl-2-pyridyl)pyrazolo[4,3-c]pyridine]
≥ 80%: mortality at 200 ppm [7] | mortality at 200 ppm [10]

CCS(=O)(=O)c1cc(C(F)(F)F)cnc1-n1cc2cnc(C(F)(F)F)cc2n1 [Compound P7, 2-[3-ethylsulfonyl-5-(trifluoromethyl)-2-pyridyl]-6-(trifluoromethyl)pyrazolo[4,3-c]pyridine]
≥ 80%: mortality at 200 ppm [1] | percent effect (mortality or growth inhibition) at 5 ppm [3] | percent control (mortality, anti-feedancy or growth inhibition) at 12.5 ppm [4] | percent effect (mortality or growth inhibition) at 200 ppm [6] | mortality at 200 ppm [7] | percent effect (mortality or growth inhibition) at 200 ppm [8] | mortality at 200 ppm [10]

CCS(=O)(=O)c1cc(Br)cnc1-n1cc2cnc(C(F)(F)F)cc2n1 [Compound P8, 2-(5-bromo-3-ethylsulfonyl-2-pyridyl)-6-(trifluoromethyl)pyrazolo[4,3-c]pyridine]
≥ 80%: mortality at 200 ppm [1] | percent effect (mortality or growth inhibition) at 200 ppm [6] | mortality at 200 ppm [7] | percent effect (mortality or growth inhibition) at 200 ppm [8] | mortality at 200 ppm [10]

CCS(=O)(=O)c1cc(C2CC2)cnc1-n1cc2cnc(C(F)(F)F)cc2n1 [Compound P9, 2-(5-cyclopropyl-3-ethylsulfonyl-2-pyridyl)-6-(trifluoromethyl)pyrazolo[4,3-c]pyridine]
≥ 80%: mortality at 200 ppm [1] | mortality at 200 ppm [10]

CCS(=O)(=O)c1cc(-c2ccccc2)cnc1-n1cc2cnc(C(F)(F)F)cc2n1 [Compound P10, 2-(3-ethylsulfonyl-5-phenyl-2-pyridyl)-6-(trifluoromethyl)pyrazolo[4,3-c]pyridine]
≥ 80%: mortality at 200 ppm [1] | mortality at 200 ppm [12] | percent effect (mortality or growth inhibition) at 200 ppm [6] | mortality at 200 ppm [7] | percent effect (mortality or growth inhibition) at 200 ppm [8] | mortality at 200 ppm [10]

CCS(=O)(=O)c1cccnc1-n1cc2nnc(C(F)(F)F)cc2n1 [PP1, 2-(3-ethylsulfonyl-2-pyridyl)-6-(trifluoromethyl)pyrazolo[4,3-c]pyridazine]
≥ 80%: mortality at 200 ppm [1] | percent effect (mortality or growth inhibition) at 200 ppm [6] | mortality at 200 ppm [7] | percent effect (mortality or growth inhibition) at 200 ppm [8] | mortality at 200 ppm [10]
